Patent US5869500A, “Pyridone compounds useful in treating Alzheimer's disease” (Hoffmann-La Roche Inc., priority 1996, dated 1999)

Tested on: Aβ production in HEK cells over-expressing mutated β-APP (SFAD)
Assay: Aβ production inhibition, sandwich-ELISA in HEK cells, over-expressed mutated β-APP (SE-SFAD)
Type: cell-based, human
Conditions: Homo sapiens, HEK293, HEK cells; for IC50: based on the respective plateau of maximum inhibition; for Emax: maximum inhibition plateau, read-out: SE-SFAD max. inhibition %
Description: The effect of test substances on the inhibition of Aβ-amyloid production can be measured in the supernatant of cell cultures of β-APP expressed cells using ELISA tests or other quantitative determination methods for β-APP degradation products. Typically, 8×10^5 cells (e.g. HEK cells, which express recombinant human β-APP variants) are plated out in each well of a culture dish having 24 wells in growth media such as e.g. OPTIMEM (Gibco) and the test compound is then added. After an incubation period of 24 to 48 hours at 37° C. in a 10% CO2 atmosphere the supernatant is removed from the cell cultures and the β-APP degradation products (e.g. Aβ or β-[…]) are determined with the aid of ELISA (or sandwich ELISA) analysis or by means of quantitative immunoprecipitation (after metabolic radiolabelling of the cell proteins). Typically, 300 μl of the cell supernatant are tested according to the state of the art for ELISA tests in culture dishes having 96 wells. In the case of sandwich ELISA for Aβ, the binding antibody can be directed against the first 16 amino acids of Aβ-peptide (e.g. 6E10 Senetek, Maryland Heights, Mo.) and the detection antibody can be directed against amino acids 17-40 or 17-42 of Aβ and carries a detection system such as e.g. peroxidase. A simple ELISA test with an antibody, e.g. 22C11 (Boehringer Mannheim), can be used as the test for […]; the second antibody can be an anti-(mouse) Ig having a detection system, such as e.g. peroxidase. The peroxidase reaction can be carried out e.g. using a TMB substrate (BioRAD) and the measurements can be carried out at 650 nm using an ELISA reading apparatus. […] SE-SFAD signifies the Aβ production inhibition measured using sandwich-ELISA in HEK cells, SFAD signifies over-expressed mutated β-APP, and SE-WT signifies the Aβ production inhibition measured using sandwich-ELISA in HEK cells which over-express Wild type β-APP. The IC50 values are based on the respective plateau of maximum inhibition.

Compound	IC50 [nM]	Emax [%]
COCCN(CC1CC1)C(=O)c1cc(-c2ccc(OCc3ccccc3)cc2)c(=O)n2ccc3ccsc3c12 [Compound 70, 8-(4-Benzyloxy-phenyl)-7-oxo-7H-thieno[2,3-a]quinolizine-10-carboxylic acid cyclopropylmethyl-(2-methoxy-ethyl)-amide]	< 1000	100
COCCN(C(=O)c1cc(-c2ccc(OCc3ccccc3)cc2)c(=O)n2ccc3cc(C(C)O)sc3c12)c1ccccc1 (racemic) [Compound 75, (RS)-8-(4-Benzyloxy-phenyl)-2-(1-hydroxy-ethyl)-7-oxo-7H-thieno[2,3-a]quinolizine-10-carboxylic acid (2-methoxy-ethyl)-phenyl-amide]	1300	100
C#CCN(C(=O)c1cc(-c2cccc(OC)c2)c(=O)n2ccc3ccsc3c12)c1ccccc1 [Compound 127, 8-(3-Methoxy-phenyl)-7-oxo-7H-thieno[2,3-a]quinolizine-10-carboxylic acid phenyl-prop-2-ynyl-amide]	800	100
COCCN(CCOC)C(=O)c1cc(-c2ccc(OCc3ccccc3)cc2)c(=O)n2ccc3c(ncn3C)c12 [Compound 103, 8-(4-Benzyloxy-phenyl)-3-methyl-7-oxo-3,7-dihydro-imidazo[4,5-a]-quinolizine-10-carboxylic acid bis-(2-methoxy-ethyl)-amide]	5000	35 to 55
COCCNC(=O)c1cc(-c2ccc(OCc3ccccc3)cc2)c(=O)n2ccc3ccsc3c12 [Compound 66, 8-(4-Benzyloxy-phenyl)-7-oxo-7H-thieno[2,3-a]quinolizine-10-carboxylic acid (2-methoxy-ethyl)-amide]	22000	60
COCCN(Cc1ccccc1)C(=O)c1cc(-c2ccc(C(C)(C)C)cc2)c(=O)n2ccc3ccsc3c12 [Compound 113, 8-(4-tert-Butyl-phenyl)-7-oxo-7H-thieno[2,3-a]quinolizine-10-carboxylicacid benzyl-(2-methoxy-ethyl)-amide]	3000	100
COCCN(CCOC)C(=O)c1cc(-c2ccc(-c3ccccc3)cc2)c(=O)n2ccc3ccsc3c12 [Compound 95, 8-(Biphenyl-4-yl)-7-oxo-7H-thieno[2,3-a]quinolizine-10-carboxylic acid bis-(2-methoxy-ethyl)-amide]	1300	100
COc1ccc(NC(=O)c2cc(-c3ccccc3OC)c(=O)n3ccc4ccsc4c23)cc1 [Compound 142, 8-(2-Methoxy-phenyl)-7-oxo-7H-thieno[2,3-a]quinolizine-10-carboxylic acid (4-methoxy-phenyl)-amide]	1500	20 to 100
COCCN(CCOC)C(=O)c1cc(-c2ccc(OC)cc2)c(=O)n2ccc3ccsc3c12 [Compound 145, 8-(4-Methoxy-phenyl)-7-oxo-7H-thieno[2,3-a]quinolizine-10-carboxylic acid bis-(2-methoxy-ethyl)-amide]	5000	100
COCCN(Cc1ccccc1)C(=O)c1cc(-c2ccc(Oc3ccccc3)cc2)c(=O)n2ccc3ccsc3c12 [Compound 100, 7--Oxo-8-(4-phenoxy-phenyl)-7H-thieno[2,3-a]quinolizine-10-carboxylic acid benzyl-(2-methoxy-ethyl)-amide]	600	100
COCCN(C(=O)c1cc(-c2ccc(C(C)(C)C)cc2)c(=O)n2ccc3ccsc3c12)c1ccccc1 [Compound 111, 8-(4-tert-Butyl-phenyl)-7-oxo-7H-thieno[2,3-a]quinolizine-10-carboxylicacid (2-methoxy-ethyl)-phenyl-amide]	2500	100
COc1cccc(-c2cc(C(=O)Nc3ccc(OC)c(OC)c3)c3c4sccc4ccn3c2=O)c1 [Compound 123, 8-(3-Methoxy-phenyl)-7-oxo-7H-thieno[2,3-a]quinolizine-10-carboxylic acid (3,4-dimethoxy-phenyl)-amide]	800	100
CCN(CC)Cc1cccc(COC(=O)c2cc(-c3ccccc3)c(=O)n3ccc4ccsc4c23)c1 [Compound 60, 3-Diethylamino-methyl-benzyl 7-oxo-8-phenyl-7H-thieno[2,3-a]-quinolizine-10-carboxylate methanesulphonate]	1200	100
COCCN(Cc1cccs1)C(=O)c1cc(-c2ccccc2OC)c(=O)n2ccc3ccsc3c12 [Compound 140, 8-(2-Methoxy-phenyl)-7-oxo-7H-thieno[2,3-a]quinolizine-10-carboxylic acid (2-methoxy-ethyl)-thiophen-2-yl-methyl-amide]	2500	30 to 100
COCCN(Cc1ccco1)C(=O)c1cc(-c2ccccc2OC)c(=O)n2ccc3ccsc3c12 [Compound 139, 8-(2-Methoxy-phenyl)-7-oxo-7H-thieno[2,3-a]quinolizine-10-carboxylic acid (furan-2-yl-methyl)-(2-methoxy-ethyl)-amide]	3300	100
CCN(CCOC)C(=O)c1cc(-c2ccc(OCc3ccccc3)cc2)c(=O)n2ccc3ccsc3c12 [Compound 68, 8-(4-Benzyloxy-phenyl)-7-oxo-7H-thieno[2,3-a]quinolizine-10-carboxylic acid ethyl-(2-methoxy-ethyl)-amide]	8000	25
COCCN(C(=O)c1cc(-c2ccccc2N)c(=O)n2ccc3ccsc3c12)c1ccccc1 [Compound 153, 8-(2-Amino-phenyl)-7-oxo-7H-thieno[2,3-a]chinolizine-10-carboxylic acid (2-methoxy-ethyl)-phenyl-amide]		20 to 40
CCOC(=O)c1cc(-c2ccc(-c3ccccc3)cc2)c(=O)n2ccc3ccsc3c12 [Compound 94, Ethyl 8-(biphenyl-4-yl)-7-oxo-7H-thieno[2,3-a]quinolizine-10-carboxylate]		20 to 40
CCc1cc2ccn3c(=O)c(-c4ccc(OCc5ccccc5)cc4)cc(C(=O)N(CCOC)c4ccccc4)c3c2s1 [Compound 78, 8-(4-Benzyloxy-phenyl)-2-ethyl-7-oxo-7H-thieno[2,3-a]quinolizine-10-carboxylic acid (2-methoxy-ethyl)-phenyl-amide]		40
COCCN(CC1CC1)C(=O)c1cc(-c2ccc(OCc3ccccc3)cc2)c(=O)n2ccc3c(ncn3C)c12 [Compound 104, 8-(4-Benzyloxy-phenyl)-3-methyl-7-oxo-3,7-dihydro-imidazo [4,5-a]-quinolizine-10-carboxylic acid cyclopropylmethyl-(2-methoxy-ethyl)-amide]	3000	100
COCCNC(=O)c1cc(-c2ccccc2OC)c(=O)n2ccc3ccsc3c12 [Compound 115, 8-(2-Methoxy-phenyl)-7-oxo-7H-thieno[2,3-a]quinolizine-10-carboxylic acid (2-methoxy-ethyl)-amide]	20000	50
CCN(CCOC)C(=O)c1cc(-c2ccc(-c3ccccc3)cc2)c(=O)n2ccc3ccsc3c12 [Compound 93, 8-(Biphenyl-4-yl)-7-oxo-7H-thieno[2,3-a]quinolizine-10-carboxylic acid ethyl-(2-methoxy-ethyl)-amide]	4200	100
COCCN(Cc1ccccc1)C(=O)c1cc(-c2ccc(OCc3ccccc3)cc2)c(=O)n2ccc3ccsc3c12 [Compound 71, 8-(4-Benzyloxy-phenyl)-7-oxo-7H-thieno[2,3-a]quinolizine-10-carboxylic acid benzyl-(2-methoxy-ethyl)-amide]	570	100
CCCc1cc2ccn3c(=O)c(-c4ccc(OCc5ccccc5)cc4)cc(C(=O)N(CCOC)c4ccccc4)c3c2s1 [Compound 79, 8-(4-Benzyloxy-phenyl)-2-propyl-7-oxo-7H-thieno[2,3-a]quinolizine-10-carboxylic acid (2-methoxy-ethyl)-phenyl-amide]		20 to 35
COCCN(C(=O)c1cc(-c2ccc(Oc3ccccc3)cc2)c(=O)n2ccc3ccsc3c12)c1ccccc1 [Compound 101, 7--Oxo-8-(4-phenoxy-phenyl)-7H-thieno[2,3-a]quinolizine-10-carboxylic acid (2-methoxy-ethyl)-phenyl-amide]	900	100
COCCN(C(=O)c1cc(-c2ccc(OC)cc2)c(=O)n2ccc3ccsc3c12)c1ccccc1 [Compound 147, 8-(4-Methoxy-phenyl)-7-oxo-7H-thieno[2,3-a]quinolizine-10-carboxylic acid (2-methoxy-ethyl)-phenyl-amide]	1500	100
CCCN(CCOC)C(=O)c1cc(-c2ccc(OC)cc2)c(=O)n2ccc3ccsc3c12 [Compound 148, 8-(4-Methoxy-phenyl)-7-oxo-7H-thieno[2,3-a]quinolizine-10-carboxylic acid (2-methoxy-ethyl)-propyl-amide]	5000	100
